According to patent US20240383852A1, “ANTI-VIRAL COMPOUNDS” (INFEX Therapeutics Limited, priority 2021, published 2024):
Counter-ions that a name gives are not always drawn.

Target: T1, SARS-CoV-2 PLpro (Severe acute respiratory syndrome coronavirus 2, UniProt P0DTD1)
T1 construct: containing 60 nM papain-like protease
Experiment: biochemical
Settings: not given

SMILES	IC50
COc1ccc([C@@H](C)NC(=O)c2cc(N3[C@@H]4CC[C@H]3CN(C)C4)ccc2C)cc1OC [Example 10, N-[(1R)-1-(3,4-Dimethoxyphenyl)ethyl]-2-methyl-5-[(1S,5R)-3-methyl-3,8-diazabicyclo[3.2.1]octan-8-yl]benzamide]	< 100 µM

Same assay, conditions: 60 nM papain-like protease, 50 μM Z-RLRGG-AMC, pH 7.5, 37° C.; read-out: SARS-CoV-2 PLpro IC50

SMILES	IC50
C[C@@H](NC(=O)c1cccc(N2CCCCC2)c1)c1cccc2ccccc12 [Example 1, N-[(1R)-1-(1-naphthyl)ethyl]-3-(1-piperidyl)benzamide]	> 100 µM
C[C@@H](NC(=O)c1cc(-c2ccccc2)ccn1)c1cccc2ccccc12 [Example 3, N-[(1R)-1-(1-Naphthyl)ethyl]-4-phenyl-pyridine-2-carboxamide]	> 100 µM
Cc1ccc(-c2ccccc2)cc1C(=O)N[C@H](C)c1cccc2ccccc12 [Example 5, 2-Methyl-N-[(1R)-1-(1-naphthyl)ethyl]-5-phenyl-benzamide]	> 100 µM
CC(=O)N1CCC(c2cccc(C(=O)N[C@H](C)c3cccc4ccccc34)c2)CC1 [Example 7, 3-(1-Acetyl-4-piperidyl)-N-[(1R)-1-(1-naphthyl)ethyl]benzamide]	> 100 µM
Cc1cnc(N2CCN(C)CC2)nc1C(=O)N[C@H](C)c1cccc2ccccc12 [Example 8, 5-Methyl-2-(4-methylpiperazin-1-yl)-N-[(1R)-1-(naphthalen-1-yl)ethyl]pyrimidine-4-carboxamide Hydrochloride Salt]	< 100 µM
C[C@@H](NC(=O)c1cc(N2CCN(C)CC2)ccn1)c1cccc2ccccc12 [Example 14, 4-(4-Methylpiperazin-1-yl)-N-[(1R)-1-(1-naphthyl)ethyl]pyridine-2-carboxamide]	> 100 µM
Cc1ccc(N2CCN(C(=O)OC(C)(C)C)CC2)cc1C(=O)N[C@H](C)c1cccc2ccccc12 [Example 28, tert-Butyl 4-[4-methyl-3-[(1R)-1-(1-naphthyl)ethyl]carbamoyl]phenyl]piperazine-1-carboxylate]	< 100 µM
Cc1ccc(N2CCN(C)CC2)cc1C(=O)N(C)[C@H](C)c1cccc2ccccc12 [Example 35, N,2-Dimethyl-5-(4-methylpiperazin-1-yl)-N-[(1R)-1-(1-naphthyl)ethyl]benzamide]	< 100 µM
COc1ccc([C@@H](C)NC(=O)c2cc(N3CC4(CNC4)C3)ccc2C)cc1OC [Example 37, 5-(2,6-Diazaspiro[3.3]heptan-2-yl)-N-[(1R)-1-(3,4-dimethoxyphenyl)ethyl]-2-methyl-benzamide]	< 20 µM
Cc1ccc(N2CCN(C)CC2)cc1C(=O)N[C@H](C)c1cccc(S(C)(=O)=O)c1 [Example 38, 2-Methyl-5-(4-methylpiperazin-1-yl)-N-[(1R)-1-(3-methylsulfonylphenyl)ethyl] benzamide]	< 20 µM
Cc1ccc(N2CCN(C)CC2)cc1C(=O)N[C@H](C)c1cccc(-c2ccncc2)c1 [Example 51, 2-Methyl-5-(4-methylpiperazin-1-yl)-N-[(1R)-1-[3-(4-pyridyl)phenyl]ethyl]benzamide]	< 2 µM
Cc1ccc(N2CCN(C)CC2)cc1C(=O)N[C@H](C)c1cccc(CCC(=O)O)c1 [Example 82, 3-[3-[(1R)-1-[[2-Methyl-5-(4-methylpiperazin-1-yl)benzoyl]amino]ethyl]phenyl] propanoic Acid]	< 100 µM
Cc1ccc(N2CCN(C)CC2)cc1C(=O)N[C@H](C)c1cccc(-c2cccc(C(=O)O)c2)c1 [Example 83, 3-[3-[(1R)-1-[[2-Methyl-5-(4-methylpiperazin-1-yl)benzoyl]amino]ethyl]phenyl]benzoic Acid]	< 5 µM
Cc1ccc(N2CCN(C)CC2)cc1C(=O)N[C@H](C)c1cccc(CCC(=O)N(C)C)c1 [Example 84, N-[(1R)-1-[3-[3-(Dimethylamino)-3-oxo-propyl]phenyl]ethyl]-2-methyl-5-(4-methylpiperazin-1-yl)benzamide]	< 20 µM
Cc1ccc(N2CCN(S(C)(=O)=O)CC2)cc1C(=O)N[C@H](C)c1cccc2ccccc12 [Example 110, 2-Methyl-5-(4-methylsulfonylpiperazin-1-yl)-N-[(1R)-1-(1-naphthyl)ethyl]benzamide]	> 100 µM
Cc1ccc(N2CC[C@H](O)C2)cc1C(=O)N[C@H](C)c1cccc2ccccc12 [Example 119, 5-[(3S)-3-Hydroxypyrrolidin-1-yl]-2-methyl-N-[(1R)-1-(1-naphthyl)ethyl]benzamide]	< 100 µM
Cc1ccc(N2CCN(C)CC2)cc1C(=O)N[C@H](C)c1cnn(C)c1 [Example 127, 2-Methyl-5-(4-methylpiperazin-1-yl)-N-[(1R)-1-(1-methylpyrazol-4-yl)ethyl]benzamide]	< 100 µM
C[C@@H](NC(=O)c1cc(N2CCN(CC(F)(F)F)CC2)ccc1Cl)c1cccc2ccccc12 [Example 131, 2-Chloro-N-[(1R)-1-(1-naphthyl)ethyl]-5-[4-(2,2,2-trifluoroethyl)piperazin-1-yl]benzamide]	> 100 µM
C[C@@H](NC(=O)c1cc(N2CCNC(C(F)(F)F)C2)ccc1Cl)c1cccc2ccccc12 (stereo partly drawn) [Example 132, 2-Chloro-N-[(1R)-1-(1-naphthyl)ethyl]-5-[3-(trifluoromethyl)piperazin-1-yl]benzamide]	< 100 µM
C[C@@H](NC(=O)c1cccc(-c2ccnc(N3CCN(C)CC3)n2)c1)c1cccc2ccccc12 [Example 137, 3-[2-(4-Methylpiperazin-1-yl)pyrimidin-4-yl]-N-[(1R)-1-(1-naphthyl)ethyl]benzamide]	> 100 µM
C[C@@H](NC(=O)c1cccc(-c2ccnc(N3CCOCC3)n2)c1)c1cccc2ccccc12 [Example 138, 3-(2-Morpholinopyrimidin-4-yl)-N-[(1R)-1-(1-naphthyl)ethyl]benzamide]	> 100 µM
Cc1ccc(-c2ccncc2)cc1C(=O)N[C@H](C)c1cccc2ccccc12 [Example 139, 2-Methyl-N-[(1R)-1-(1-naphthyl)ethyl]-5-(4-pyridyl)benzamide]	< 20 µM
Cc1ccc(-c2cccc(CCN3CCOCC3)c2)cc1C(=O)N[C@H](C)c1cccc2ccccc12 [Example 141, 2-Methyl-5-[3-(2-morpholinoethyl)phenyl]-N-[(1R)-1-(1-naphthyl)ethyl]benzamide]	> 100 µM
Cc1ccc(-c2cccc(CCO)c2)cc1C(=O)N[C@H](C)c1cccc2ccccc12 [Example 142, 5-[3-(2-Hydroxyethyl)phenyl]-2-methyl-N-[(1R)-1-(1-naphthyl)ethyl]benzamide]	> 100 µM
Cc1ccc(-c2cccnc2)cc1C(=O)N[C@H](C)c1cccc2ccccc12 [Example 143, 2-Methyl-N-[(1R)-1-(1-naphthyl)ethyl]-5-(3-pyridyl)benzamide]	< 20 µM
C[C@@H](NC(=O)c1cc(-c2ccc(CN3CCN(C)CC3)cc2)ccc1Cl)c1cccc2ccccc12 [Example 145]	< 100 µM
C[C@@H](NC(=O)c1cc(-c2ccncc2)cn1C)c1cccc2ccccc12 [Example 148, 1-Methyl-N-[(1R)-1-(1-naphthyl)ethyl]-4-(4-pyridyl)pyrrole-2-carboxamide]	> 100 µM
C[C@@H](NC(=O)c1cc(C2=CCNC2)cn1C)c1cccc2ccccc12 [Example 149, 4-(2,5-Dihydro-1H-pyrrol-3-yl)-1-methyl-N-[(1R)-1-(1-naphthyl)ethyl]pyrrole-2-carboxamide Hydrochloride Salt]	< 100 µM
C[C@@H](NC(=O)c1cc(C2CCNC2)cn1C)c1cccc2ccccc12 (stereo partly drawn) [Example 150, 1-Methyl-N-[(1R)-1-(1-naphthyl)ethyl]-4-pyrrolidin-3-yl-pyrrole-2-carboxamide]	< 100 µM
